Reference: patent US8629173B2, “Solid forms comprising (+)-2-[1-(3-ethoxy-4-methoxyphenyl)-2-methylsulfonylethyl]-4-acetylaminoisoindoline-1,3-dione, compositions thereof, and uses thereof” (Celgene Corporation, priority 2002, dated 2014)

Assays:
[1] = test system: Zymosan-induced IL-8 production in human neutrophils; assay: Zymosan-induced IL-8 production; format: cell-based; conditions: Neutrophil, 18 hours
Description: Zymosan A, or the heat-killed yeast Saccharomyces cerevisiae, binds to the adhesion molecule Mac-1 on the neutrophil surface and triggers phagocytosis, cell activation and IL-8 production. Zymosan-induced IL-8 production was measured as previously described (Au et al., 1998, Brit. J. Pharm., 123:1260-1266) with the following modifications. Human neutrophils were purified as described above, plated in 96-well tissue culture plates at 3×10^5 cells/well in complete medium, treated with compounds at 10, 2, 0.4, 0.08, 0.016, 0.0032, 0.00064, and 0 μM in duplicate in a final DMSO concentration of 0.1% for 1 hour at 37° C. 5% CO2. Neutrophils were then stimulated with unopsonized, boiled Zymosan A (Sigma) at 2.5×10^5 particles/well for 18 hours. Supernatants were harvested and tested for IL-8 by ELISA (R&D Systems).

[2] = target: T1, PDE6 from bovine retinal rod outer segments (Bos taurus, UniProt P11541+P23439); assay: PDE6 enzyme assay; format: biochemical
T1 construct: PDE6 from bovine retinal rod outer segments; from tissue; host or cells: bovine retinal rod outer segments
T1 sequence (P11541 2-856 limits assumed): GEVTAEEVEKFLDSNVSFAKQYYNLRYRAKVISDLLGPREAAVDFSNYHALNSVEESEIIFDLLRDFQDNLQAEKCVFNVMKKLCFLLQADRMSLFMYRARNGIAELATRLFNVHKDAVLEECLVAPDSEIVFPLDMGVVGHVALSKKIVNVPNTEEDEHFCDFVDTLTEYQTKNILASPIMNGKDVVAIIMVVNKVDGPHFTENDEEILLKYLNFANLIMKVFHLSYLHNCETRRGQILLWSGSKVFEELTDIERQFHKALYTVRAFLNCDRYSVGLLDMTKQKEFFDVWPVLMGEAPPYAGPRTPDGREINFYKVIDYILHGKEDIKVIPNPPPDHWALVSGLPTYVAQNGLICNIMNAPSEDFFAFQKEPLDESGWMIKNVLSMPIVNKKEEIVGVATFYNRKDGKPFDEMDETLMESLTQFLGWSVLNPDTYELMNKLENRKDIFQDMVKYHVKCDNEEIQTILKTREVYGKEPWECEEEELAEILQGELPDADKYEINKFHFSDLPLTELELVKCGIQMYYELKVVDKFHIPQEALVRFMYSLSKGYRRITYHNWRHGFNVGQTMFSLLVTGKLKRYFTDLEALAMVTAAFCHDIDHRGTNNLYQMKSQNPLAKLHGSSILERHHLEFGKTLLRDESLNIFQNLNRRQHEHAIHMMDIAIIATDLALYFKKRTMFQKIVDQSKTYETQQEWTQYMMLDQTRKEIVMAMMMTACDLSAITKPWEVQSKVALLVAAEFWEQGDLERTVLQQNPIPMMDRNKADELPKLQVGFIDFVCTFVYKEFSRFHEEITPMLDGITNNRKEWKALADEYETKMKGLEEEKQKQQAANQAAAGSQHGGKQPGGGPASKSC
T1 sequence (P23439 2-850 limits assumed): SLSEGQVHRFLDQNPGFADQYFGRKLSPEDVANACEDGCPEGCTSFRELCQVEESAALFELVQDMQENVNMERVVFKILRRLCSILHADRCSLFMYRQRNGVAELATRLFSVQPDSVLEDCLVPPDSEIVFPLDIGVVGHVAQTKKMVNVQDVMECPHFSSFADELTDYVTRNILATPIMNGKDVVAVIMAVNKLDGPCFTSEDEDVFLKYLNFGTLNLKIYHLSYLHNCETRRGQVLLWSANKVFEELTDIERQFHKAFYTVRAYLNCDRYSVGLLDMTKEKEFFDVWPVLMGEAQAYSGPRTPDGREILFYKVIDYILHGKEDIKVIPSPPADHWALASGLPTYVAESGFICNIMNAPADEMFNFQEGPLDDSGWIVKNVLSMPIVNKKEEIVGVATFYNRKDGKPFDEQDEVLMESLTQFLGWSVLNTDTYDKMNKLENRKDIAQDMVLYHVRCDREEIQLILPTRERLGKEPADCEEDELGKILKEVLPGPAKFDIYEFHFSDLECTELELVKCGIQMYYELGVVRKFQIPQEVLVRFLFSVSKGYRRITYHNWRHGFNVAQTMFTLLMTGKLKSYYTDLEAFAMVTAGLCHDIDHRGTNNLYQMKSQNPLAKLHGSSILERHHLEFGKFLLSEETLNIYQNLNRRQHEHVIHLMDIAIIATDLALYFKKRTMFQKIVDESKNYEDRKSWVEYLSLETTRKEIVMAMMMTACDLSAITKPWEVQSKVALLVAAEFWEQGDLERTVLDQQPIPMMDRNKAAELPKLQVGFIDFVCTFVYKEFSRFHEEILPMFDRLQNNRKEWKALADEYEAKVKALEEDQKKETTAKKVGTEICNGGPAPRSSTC

[3] = test system: SEB-induced IFN-γ production; assay: cells; format: cell-based; conditions: Homo sapiens, PBMC, 18 h, read-out: IFN-γ IC50
[4] = pH 7.4
[5] = test system: neutrophil adhesion to HUVEC; assay: fMLF-induced adhesion to HUVEC; format: cell-based; conditions: human neutrophils, 500 nM fMLF
Description: Human umbilical vein endothelial cells (HUVEC) were used as a substrate for neutrophil adhesion as previously described (Derian et al., 1995, J. Immunol., 154:308-317) with the following modifications. HUVEC cells were obtained from Anthrogenesis (Cedar Knolls, N.J., USA), and neutrophils were not treated with cytochalasin B. Cells were treated with compounds at 10, 1, 0.1, 0.01, 0.001, and 0 μM in a final DMSO concentration of 0.1% in duplicate for 10 minutes, stimulated with 500 nM fMLF for 30 minutes, and washed twice with PBS before measuring fluorescence on an FLX800 plate reader (Bio-Tek Instruments, Winooski, Vt., USA).

SMILES: CCOc1cc(C(CS(C)(=O)=O)N2C(=O)c3cccc(NC(C)=O)c3C2=O)ccc1OC (single isomer, unassigned; (+)) [Compound A, (+)-2-[1-(3-ethoxy-4-methoxyphenyl)-2-methylsulfonylethyl]-4-acetylaminoisoindoline-1,3-dione]
- IC50 [1]: 94 nM
- PDE Specificity Ratio PDE4/PDE6 ([2]; from Table 1 data): >40000 fold
- inhibition at 10 µM ([2]; read-out: PDE6 (% inhib at 10 μM)): -6%
- IC50 [3]: 46 nM
- aqueous solubility relative to the racemic mixture [4]: 3.5 fold
- IC50 [5]: 150 nM
